Structures can show the parent of a compound that is named as a salt.

The subject of one experiment is IRE1-XBP1s (XBP1-RLuc splicing reporter in HEK293 T-REx cells). Briefly: IRE1-XBP1s activation assay (XBP1-RLuc splicing reporter, HEK293 T-REx cells, luminescence relative to thapsigargin). It counts as cell-based. The following applies: 18 h, compound 10 μM, HEK293 T-REx XBP1-RLuc reporter cells, relative to thapsigargin (Tg) 500 nM, read-out: Activity (IRE1-XBP1s activation, luminescence as % signal relative to thapsigargin, % Tg). As for the experimental part:
IRE1-XBP1s activation Assay: HEK293 T-REx cells stably expressing the XBP1-RLuc splicing reporter were treated with an IRE1-XBP1s activator provided herein (10 μM) in the presence or absence of the IRE1 active site inhibitor 4μ8C (32 μM) for 18 h. Luminescence was shown as the percentage signal relative to thapsigargin (Tg) (500 nM, 18 h).
For the compound `Cc1ccc(OCCN(C)C(=O)Cn2cc(NC(=O)CCOc3c(C)ccnc3C)cn2)cc1` [Compound 14], the activation at 10 µM lay within 30 to 50%.

`CN(CCOc1ccc(C(F)(F)F)cc1)C(=O)Cn1cc(NC(=O)CCOc2ccncc2F)cn1` [Compound 19]: the activation at 10 µM lay within 30 to 50%.

For `Cc1ccc(OCCC(=O)Nc2cnn(CC(=O)N(C)CCOc3ccc(C)c(Cl)c3)c2)c(F)c1` [Compound 76], the activation at 10 µM is less than 30%.

As to `Cc1ccc(OCCN(C)C(=O)Cn2cc(NC(=O)CCNc3cnc(Cl)cn3)cn2)cc1` [Compound 127], the activation at 10 µM is more than 50%. Same read-out and setting: for `Cc1ccc(OCCN(C)C(=O)Cn2cc(NC(=O)CCNc3ccnc(C)c3)cn2)cc1` [Compound 164, N-(1-(2-(methyl(2-(p-tolyloxy)ethyl)amino)-2-oxoethyl)-1H-pyrazol-4-yl)-3-((2-methylpyridin-4-yl)amino)propanamide] the value was 30 to 50%; for `Cc1ccc(OCCN(C)C(=O)Cn2cc(NC(=O)CCOc3ccc(F)cc3C(F)(F)F)cn2)cc1` [Compound 60], less than 30%.

On to `Cc1ccc(OCCN(C)C(=O)Cn2cc(NC(=O)CCNc3ccc(F)nc3C)cn2)cc1` [Compound 196], for which the activation at 10 µM was more than 50%.

Take `Cc1ccc(OCCN(C)C(=O)Cn2cc(NC(=O)CCOc3ccc(C)cc3F)cn2)cc1` [Compound 39]: the activation at 10 µM lay within 30 to 50%.

With `Cc1ccc(OC[C@H](C)N(C)C(=O)Cn2cc(NC(=O)CCNc3ccnc(F)n3)cn2)cc1` [Compound 264], the activation at 10 µM was more than 50%.

Turning to `Cc1ccc(OCCN(C)C(=O)Cn2cc(NC(=O)CNCc3cccnc3N)cn2)cc1` [Compound 83], the activation at 10 µM was less than 30%.

Take `Cc1ccc(OCCN(C)C(=O)Cn2cc(NC(=O)CCOc3ccc(C(F)(F)F)cc3)cn2)cc1` [Compound 44]: the activation at 10 µM is less than 30%. As for `Cc1ccc(OCCN(C)C(=O)Cn2cc(NC(=O)CCNc3cc(C)ncc3F)cn2)cc1` [Compound 207], the activation at 10 µM was less than 30%.

Turning to `Cc1ccc(OCCN(C)C(=O)Cn2cc(NC(=O)C(C)COc3ccccc3)cn2)cc1` (stereo not drawn) [Compound 46, 2-methyl-N-(1-(2-(methyl(2-(p-tolyloxy)ethyl)amino)-2-oxoethyl)-1H-pyrazol-4-yl)-3-phenoxypropanamide], the activation at 10 µM is more than 50%.

Consider `Cc1ccc(OCCC(=O)Nc2cnn(CC(=O)N(C)CCOc3ccc(F)c(F)c3)c2)c(F)c1` [Compound 70], for which the activation at 10 µM is less than 30%. `Cc1ccc(OCCN(C)C(=O)Cn2cc(NC(=O)CCNC(=O)c3ncc(F)cn3)cn2)cc1` [Compound 248, 5-Fluoro-N-[3-[[1-[2-[methyl-[2-(4-methylphenoxy)ethyl]amino]-2-oxo-ethyl]pyrazol-4-yl]amino]-3-oxo-propyl]pyrimidine-2-carboxamide]: the activation at 10 µM was less than 30%.

Consider `Cc1ccc(OCCN(C)C(=O)Cn2cc(NC(=O)CCOc3cncc(N)c3)cn2)cc1` [Compound 235], for which the activation at 10 µM is less than 30%. Regarding `COC(=O)Nc1cc(OCCC(=O)Nc2cnn(CC(=O)N(C)CCOc3ccc(C)cc3)c2)ccn1` [Compound 262], the activation at 10 µM fell in the range of 30 to 50%. With `Cc1cc(F)ccc1OCCC(=O)Nc1cnn(CC(=O)N(C)CCOc2ccc(C(=O)O)cc2)c1` [Compound 88], the activation at 10 µM was less than 30%. The same measure, in the same setting: for `Cc1ccc(OCCN(C)C(=O)Cn2cc(NC(=O)CCNc3ccc(C)cn3)cn2)cc1` [Compound 126] the value was less than 30%; for `Cc1ccc(OCCN(C)C(=O)Cn2cc(NC(=O)CCOc3c(F)cncc3F)cn2)cc1` [Compound 18], more than 50%. On the same count and under the same terms, the value for `COc1ccc(NCCC(=O)Nc2cnn(CC(=O)N(C)CCOc3ccc(C)cc3)c2)c(C)n1` [Compound 197] was 30 to 50%; that for `Cc1ccc(OCC(C)(C)N(C)C(=O)Cn2cc(NC(=O)CCNc3ccnc(F)n3)cn2)cc1` [Compound 256] was more than 50%. Still for that read-out and setting: the value for `Cc1ccc(OCCN(C)C(=O)Cn2cc(NC(=O)CCOc3ccccc3Cl)cn2)cc1` [Compound 32] was more than 50%; that for `Cc1ccc(OCCN(C)C(=O)Cn2cc(NC(=O)CCOc3ccc(C)nc3C)cn2)cc1` [Compound 11] was 30 to 50%; that for `Cc1ccc(OCCN(C)C(=O)Cn2cc(NC(=O)CCNc3c(F)cnc(C)c3C)cn2)cc1` [Compound 215] was more than 50%. On to `Cc1ccc(OCCN(C)C(=O)Cn2cc(NC(=O)CCNc3cc(C)ncc3C)cn2)cc1` [Compound 173], for which the activation at 10 µM was less than 30%. Same read-out and setting: for `COc1cc(NCCC(=O)Nc2cnn(CC(=O)N(C)CCOc3ccc(C)cc3)c2)ccn1` [Compound 120] the value was more than 50%. Still for that read-out and setting: the value for `COc1ccc(OCCN(C)C(=O)Cn2cc(NC(=O)CCNc3ccnc(OC)c3)cn2)cc1` [Compound 169] was more than 50%; that for `Cc1ccc(OCCN(C)C(=O)Cn2cc(NC(=O)CCOc3ncc(F)cc3C)cn2)cc1` [Compound 68] was less than 30%; that for `Cc1ccc(OCCN(C)C(=O)Cn2cc(NC(=O)CCOc3ccc(N)cn3)cn2)cc1` [Compound 205] was more than 50%.

In the case of `Cc1ccc(OCCN(C)C(=O)Cn2cc(NC(=O)[C@@H](C)CNc3ccnc(F)n3)cn2)cc1` [Compound 224], the activation at 10 µM was more than 50%.

Regarding `Cc1ccc(OCCN(C)C(=O)Cn2cc(NC(=O)CCOc3c(F)cc(C)cc3F)cn2)cc1` [Compound 116], the activation at 10 µM was more than 50%. Consider `Cc1ccc(OCCN(C)C(=O)Cn2cc(NC(=O)CCOc3cccc(C)n3)cn2)cc1` [Compound 105], for which the activation at 10 µM was more than 50%.

Consider `Cc1ccc(OCCN(C)C(=O)Cn2cc(NC(=O)OC3CCCN(c4ccnc(F)n4)C3)cn2)cc1` (stereo not drawn) [Compound 201], for which the activation at 10 µM was less than 30%. For `Cc1ccc(OCCN(C)C(=O)Cn2cc(NC(=O)CCNc3ccccc3)cn2)cc1` [Compound 27], the activation at 10 µM is more than 50%.

`Cc1ccc(OCCN(C)C(=O)Cn2cc(NC(=O)C(C)(C)CNc3ccc(F)nc3C)cn2)cc1` [Compound 221]: the activation at 10 µM is less than 30%. Turning to `Cc1ccc(OCCN(C)C(=O)Cn2cc(NC(=O)CCOc3ccccc3C)cn2)cc1` [Compound 34], the activation at 10 µM is more than 50%. On the same count and under the same terms, for `Cc1ccc(OCCN(C)C(=O)Cn2cc(NC(=O)CCNc3cncc(Cl)n3)cn2)cc1` [Compound 151] the value was 30 to 50%; for `Cc1ccc(OCCN(C)C(=O)Cn2cc(NC(=O)CCNc3ccc(Cl)nc3)cn2)cc1` [Compound 178], 30 to 50%; for `Cc1ccc(OCCN(C)C(=O)Cn2cc(NC(=O)CCNc3cncc(N)c3)cn2)cc1` [Compound 119], less than 30%. Consider `COc1ccc(OCCN(C)C(=O)Cn2cc(NC(=O)CCOc3ccccc3)cn2)cc1` [Compound 24], for which the activation at 10 µM was less than 30%.

As to `COc1ccc(OCCN(C)C(=O)Cn2cc(NC(=O)CCNc3ccnc(C)c3)cn2)cc1` [Compound 166], the activation at 10 µM is less than 30%. On the same count and under the same terms, for `Cc1ccc(OCCN(C)C(=O)Cn2cc(NC(=O)CCNc3nc(Cl)ns3)cn2)cc1` [Compound 134] the value was more than 50%; for `C#CCCC1(CCC(=O)Nc2cncc(OCCC(=O)Nc3cnn(CC(=O)N(C)CCOc4ccc(C)cc4)c3)c2)N=N1` [Compound 236], less than 30%. On to `Cc1ccc(OCCN(C)C(=O)Cn2cc(NC(=O)CCNc3ccc(Cl)cn3)cn2)cc1` [Compound 129], for which the activation at 10 µM was less than 30%. Take `Cc1ccc(OCCN(C)C(=O)Cn2cc(NC(=O)CCNc3ncc(C#N)cn3)cn2)cc1` [Compound 125]: the activation at 10 µM is less than 30%. Same read-out and setting: for `Cc1ccc(OCCN(C)C(=O)Cn2cc(NC(=O)CCNc3cccnc3C)cn2)cc1` [Compound 174] the value was 30 to 50%; for `Cc1ccc(OCCN(C)C(=O)Cn2cc(NC(=O)CCOc3ccc(F)nc3C)cn2)cc1` [Compound 10], 30 to 50%; for `Cc1ccc(OCCN(C)C(=O)Cn2cc(NC(=O)CCNc3ccnc(F)c3)cn2)cc1` [Compound 131], 30 to 50%.

`Cc1ccc(OCCN(C)C(=O)Cn2cc(NC(=O)/C=C/Oc3cccnc3N)cn2)cc1` [Compound 237]: the activation at 10 µM was less than 30%. The same measure, in the same setting: the value for `Cc1ncc(OCCN(C)C(=O)Cn2cc(NC(=O)CCNc3ccc(F)nc3C)cn2)cn1` [Compound 241] was less than 30%; that for `Cc1ccc(OCCN(C)C(=O)Cn2cc(NC(=O)CCOc3c(F)cccc3Cl)cn2)cc1` [Compound 57] was 30 to 50%; that for `Cc1ccc(OCCC(=O)Nc2cnn(CC(=O)N(C)CCOc3ccc(C(F)F)cc3)c2)c(F)c1` [Compound 86] was more than 50%. The same measure, in the same setting: for `Cc1ccc(OCCN(C)C(=O)Cn2cc(NC(=O)CCNc3ccnc4ncnn34)cn2)cc1` [Compound 200] the value was less than 30%; for `Cc1ccc(OCCN(C)C(=O)Cn2cc(NC(=O)CCOc3ncncc3N)cn2)cc1` [Compound 109], more than 50%. The same measure, in the same setting: for `Cc1ccc(OCCN(C)C(=O)Cn2cc(NC(=O)[C@H](C)CNc3ccnc(F)n3)cn2)cc1` [Compound 225] the value was 30 to 50%; for `Cc1ccc(OCCN(C)C(=O)Cn2cc(NC(=O)CCNc3cnc(C#N)c(F)c3)cn2)cc1` [Compound 177], 30 to 50%. `CC(C)c1cncc(F)c1OCCC(=O)Nc1cnn(CC(=O)N(C)CCOc2ccc(C(F)(F)F)nc2)c1` [Compound 277]: the activation at 10 µM is more than 50%. Same read-out and setting: the value for `[2H]C([2H])([2H])c1ccc(OCCN(C)C(=O)Cn2cc(NC(=O)CCNc3ccnc(F)n3)cn2)cc1` [Compound 222] was more than 50%.

The same experiment, now with this note: 18 h, read-out: Activity (IRE1-XBP1s activation, luminescence as % signal relative to thapsigargin, % Tg).
In the case of `CN(CCc1ccc(Cl)cc1)C(=O)Cn1cc(NC(=O)CCOc2ccccc2)cn1` [Compound 22, N-(1-(2-((4-chlorophenethyl)(methyl)amino)-2-oxoethyl)-1H-pyrazol-4-yl)-3-phenoxypropanamide hydrochloride], the activation at 10 µM was less than 30%.

The values are drawn from patent US20260193236A1 (Protego Biopharma, Inc., priority 2022, published 2026).
